Results: patent US10239870B2, “Dopamine D3 receptor antagonists” (priority 2014, dated 2019)

Molecular target: hD2 recombinant receptor (human dopamine receptor type 2, long variant, CHO-Gα16-hD2L membranes) (Homo sapiens (Human), UniProt P14416)
Details: displacement of 0.08 nM [3H]-Spiperone

Row | SMILES | D2 pKi
1 | CC(=O)N1CC(c2nnc(SCCCN3CC[C@]4(C[C@@H]4c4ccc(C(F)(F)F)cc4)C3)n2C)C1 [Example 107, 1-{3-[4-methyl-5-({3-[(1R,3S/1S,3R)-1-[4-(trifluoromethyl)phenyl]-5-azaspiro[2.4]heptan-5-yl]propyl}sulfanyl)-4H-1,2,4-triazol-3-yl]azetidin-1-yl}ethan-1-one] | 5.56
2 | CNC(=O)c1cccc(-c2nnc(SCCCN3CC[C@]4(C[C@@H]4c4ccc(C(F)(F)F)cc4)C3)n2C)n1.Cl [Example 195, N-methyl-6-[4-methyl-5-({3-[(1R,3S)-1-[4-(trifluoromethyl)phenyl]-5-azaspiro[2.4]heptan-5-yl]propyl}sulfanyl)-4H-1,2,4-triazol-3-yl]pyridine-2-carboxamide hydrochloride] | 5.84
3 | Cn1c(SCCCN2CC[C@]3(C[C@H]3c3ccc(C(F)(F)F)cc3F)C2)nnc1-c1ccncc1 [Example 164, (1R,3S/1S,3R)-1-[2-fluoro-4-(trifluoromethyl)phenyl]-5-(3-{[4-methyl-5-(pyridin-4-yl)-4H-1,2,4-triazol-3-yl]sulfanyl}propyl)-5-azaspiro[2.4]heptane] | 6.23
4 | Cl.Cn1c(SCCCN2CC[C@]3(C[C@@H]3c3ccc(C(F)(F)F)cc3)C2)nnc1-c1ccc[nH]c1=O [Example 125, 3-[4-methyl-5-({3-[(1R,3S)-1-[4-(trifluoromethyl)phenyl]-5-azaspiro[2.4]heptan-5-yl]propyl}sulfanyl)-4H-1,2,4-triazol-3-yl]-1,2-dihydropyridin-2-one hydrochloride] | 5.48
5 | Cl.Cn1c(SCCCN2CC[C@]3(C[C@@H]3c3ccc(C(F)(F)F)cc3F)C2)nnc1-c1ccn(C)c(=O)c1 [Example 139, 4-[5-({3-[(1S,3S)-1-[2-fluoro-4-(trifluoromethyl)phenyl]-5-azaspiro[2.4]heptan-5-yl]propyl}sulfanyl)-4-methyl-4H-1,2,4-triazol-3-yl]-1-methyl-1,2-dihydropyridin-2-one hydrochloride] | 5.83
6 | Cn1c(SCCCN2CC[C@]3(CC3c3ccc(C(F)(F)F)cc3)C2)nnc1-c1cccnc1F (stereo partly drawn) [Example 173, (1R,3S/1S,3R)-5-(3-{[5-(2-fluoropyridin-3-yl)-4-methyl-4H-1,2,4-triazol-3-yl]sulfanyl}propyl)-1-[4-(trifluoromethyl)phenyl]-5-azaspiro[2.4]heptane] | 5.75
7 | CC(=O)N1CCC(c2nnc(SCCCN3CC[C@]4(C[C@@H]4c4ccc(C(F)(F)F)cc4F)C3)n2C)CC1.Cl [Example 102, 1-{4-[5-({3-[(1S,3S)-1-[2-fluoro-4-(trifluoromethyl)phenyl]-5-azaspiro[2.4]heptan-5-yl]propyl}sulfanyl)-4-methyl-4H-1,2,4-triazol-3-yl]piperidin-1-yl}ethan-1-one hydrochloride] | 6.00
8 | COCCC(=O)N1CCC(c2nnc(SCCCN3CC[C@]4(C[C@@H]4c4ccc(C(F)(F)F)cc4)C3)n2C)CC1.Cl [Example 104, 3-methoxy-1-{4-[4-methyl-5-({3-[(1R,3S)-1-[4-(trifluoromethyl)phenyl]-5-azaspiro[2.4]heptan-5-yl]propyl}sulfanyl)-4H-1,2,4-triazol-3-yl]piperidin-1-yl}propan-1-one hydrochloride] | 5.80
9 | Cn1c(SCCCN2CC[C@]3(CC3c3ccc(C(F)(F)F)cc3F)C2)nnc1-c1cccc(=O)[nH]1 (stereo partly drawn) [Example 123, 6-[5-({3-[(1R,3S/1S,3R)-1-[2-fluoro-4-(trifluoromethyl)phenyl]-5-azaspiro[2.4]heptan-5-yl]propyl}sulfanyl)-4-methyl-4H-1,2,4-triazol-3-yl]-1,2-dihydropyridin-2-one] | 6.00
10 | CN(C)C(=O)c1cccc(-c2nnc(SCCCN3CC[C@]4(C[C@@H]4c4ccc(C(F)(F)F)cc4)C3)n2C)n1.Cl [Example 197, N,N-dimethyl-6-[4-methyl-5-({3-[(1R,3S)-1-[4-(trifluoromethyl)phenyl]-5-azaspiro[2.4]heptan-5-yl]propyl}sulfanyl)-4H-1,2,4-triazol-3-yl]pyridine-2-carboxamide hydrochloride] | 5.66
11 | CC(=O)N1CCC(c2nnc(SCCCN3CC[C@]4(C[C@@H]4c4ccc(C(F)(F)F)cc4F)C3)n2C)CC1 [Example 101, 1-{4-[5-({3-[(1S,3S/1R,3R)-1-[2-fluoro-4-(trifluoromethyl)phenyl]-5-azaspiro[2.4]heptan-5-yl]propyl}sulfanyl)-4-methyl-4H-1,2,4-triazol-3-yl]piperidin-1-yl}ethan-1-one] | 5.99
12 | Cc1cncc(-c2nnc(SCCCN3CC[C@]4(CC4c4ccc(C(F)(F)F)cc4)C3)n2C)n1 (stereo partly drawn) [Example 222, (1R,3S/1S,3R)-5-(3-{[4-methyl-5-(6-methylpyrazin-2-yl)-4H-1,2,4-triazol-3-yl]sulfanyl}propyl)-1-[4-(trifluoromethyl)phenyl]-5-azaspiro[2.4]heptane] | 5.91
13 | Cn1c(SCCCN2CC[C@]3(CC3c3ccc(C(F)(F)F)cc3)C2)nnc1-c1cccc(=O)[nH]1 (stereo partly drawn) [Example 122, 6-[4-methyl-5-({3-[(1R,3S/1S,3R)-1-[4-(trifluoromethyl)phenyl]-5-azaspiro[2.4]heptan-5-yl]propyl}sulfanyl)-4H-1,2,4-triazol-3-yl]-1,2-dihydropyridin-2-one] | 6.34
14 | Cl.Cn1c(SCCCN2CC[C@]3(C[C@@H]3c3ccc(C(F)(F)F)cc3)C2)nnc1C1CCN(C(=O)C2CC2)CC1 [Example 106, (1R,3S)-5-(3-{[5-(1-cyclopropanecarbonylpiperidin-4-yl)-4-methyl-4H-1,2,4-triazol-3-yl]sulfanyl}propyl)-1-[4-(trifluoromethyl)phenyl]-5-azaspiro[2.4]heptane hydrochloride] | 6.05
15 | Cl.Cn1c(SCCCN2CC[C@]3(C[C@@H]3c3ccc(C(F)(F)F)cc3)C2)nnc1C1CCC(=O)NC1 (stereo partly drawn) [Example 121, 5-[4-methyl-5-({3-[(1R,3S)-1-[4-(trifluoromethyl)phenyl]-5-azaspiro[2.4]heptan-5-yl]propyl}sulfanyl)-4H-1,2,4-triazol-3-yl]piperidin-2-one hydrochloride] | 5.92
16 | Cn1c(SCCCN2CC[C@]3(CC3c3ccc(C(F)(F)F)cc3F)C2)nnc1-c1ccc(=O)[nH]c1 (stereo partly drawn) [Example 129, 5-[5-({3-[(1S,3S/1R,3R)-1-[2-fluoro-4-(trifluoromethyl)phenyl]-5-azaspiro[2.4]heptan-5-yl]propyl}sulfanyl)-4-methyl-4H-1,2,4-triazol-3-yl]-1,2-dihydropyridin-2-one] | 6.35

Other lines, results leading:

Row | D2 pKi | SMILES
17 | 6.18 | Cc1nnsc1-c1nnc(SCCCN2CC[C@]3(C[C@@H]3c3ccc(C(F)(F)F)cc3)C2)n1C.Cl [Example 262, (1R,3S)-5-(3-{[4-methyl-5-(4-methyl-1,2,3-thiadiazol-5-yl)-4H-1,2,4-triazol-3-yl]sulfanyl}propyl)-1-[4-(trifluoromethyl)phenyl]-5-azaspiro[2.4]heptane]
18 | 6.52 | Cl.Cn1c(SCCCN2CC[C@]3(C[C@@H]3c3ccc(C(F)(F)F)cc3)C2)nnc1-c1ccc(-c2nnco2)cc1 [Example 274, (1R,3S)-5-[3-({4-methyl-5-[4-(1,3,4-oxadiazol-2-yl)phenyl]-4H-1,2,4-triazol-3-yl}sulfanyl)propyl]-1-[4-(trifluoromethyl)phenyl]-5-azaspiro[2.4]heptane]
19 | 5.80 | Cl.Cn1c(SCCCN2CC[C@]3(C[C@@H]3c3ccc(C(F)(F)F)cc3)C2)nnc1-c1ccc2nncn2c1 [Example 268, (1R,3S)-5-{3-[(4-methyl-5-{[1,2,4]triazolo[4,3-a]pyridin-6-yl}-4H-1,2,4-triazol-3-yl)-sulfanyl]propyl}-1-[4-(trifluoromethyl)phenyl]-5-azaspiro[2.4]heptane]
20 | 5.91 | Cc1nnc2ccc(-c3nnc(SCCCN4CC[C@]5(C[C@@H]5c5ccc(C(F)(F)F)cc5)C4)n3C)cn12 [Example 271, (1R,3S)-5-{3-[(4-methyl-5-{3-methyl-[1,2,4]triazolo[4,3-a]pyridin-6-yl}-4H-1,2,4-triazol-3-yl)sulfanyl]propyl}-1-[4-(trifluoromethyl)phenyl]-5-azaspiro[2.4]heptane]
21 | 5.38 | Cl.Cn1c(SCCCN2CC[C@]3(C[C@@H]3c3ccc(C(F)(F)F)cc3)C2)nnc1-c1cccn2cnnc12 [Example 267, (1R,3S)-5-{3-[(4-methyl-5-{[1,2,4]triazolo[4,3-a]pyridin-8-yl}-4H-1,2,4-triazol-3-yl)-sulfanyl]propyl}-1-[4-(trifluoromethyl)phenyl]-5-azaspiro[2.4]heptane]
22 | 6.04 | Cn1c(SCCCN2CC[C@]3(C[C@@H]3c3ccc(C(F)(F)F)cc3F)C2)nnc1-c1ccn2cnnc2c1 [Example 270, (1S,3S)-1-[2-fluoro-4-(trifluoromethyl)phenyl]-5-{3-[(4-methyl-5-{[1,2,4]triazolo[4,3-a]pyridin-7-yl}-4H-1,2,4-triazol-3-yl)sulfanyl]propyl}-5-azaspiro[2.4]heptane]
23 | 6.00 | Cc1cnc(-c2nnc(SCCCN3CC[C@]4(CC4c4ccc(C(F)(F)F)cc4)C3)n2C)cn1 (stereo partly drawn) [Example 223, (1R,3S/1S,3R)-5-(3-{[4-methyl-5-(5-methylpyrazin-2-yl)-4H-1,2,4-triazol-3-yl]sulfanyl}propyl)-1-[4-(trifluoromethyl)phenyl]-5-azaspiro[2.4]heptane]
24 | 6.26 | Cn1cccc1-c1nnc(SCCCN2CC[C@]3(CC3c3ccc(C(F)(F)F)cc3)C2)n1C (stereo partly drawn) [Example 258, (1R,3S/1S,3R)-5-(3-{[4-methyl-5-(1-methyl-1H-pyrrol-2-yl)-4H-1,2,4-triazol-3-yl]sulfanyl}propyl)-1-[4-(trifluoromethyl)phenyl]-5-azaspiro[2.4]heptane]
25 | 6.33 | Cn1c(SCCCN2CC[C@]3(C[C@@H]3c3ccc(C(F)(F)F)cc3)C2)nnc1-c1cnc(C(N)=O)cn1 [Example 228, 5-[4-methyl-5-({3-[(1R,3S)-1-[4-(trifluoromethyl)phenyl]-5-azaspiro[2.4]heptan-5-yl]propyl}sulfanyl)-4H-1,2,4-triazol-3-yl]pyrazine-2-carboxamide]
26 | 5.85 | Cc1nccnc1-c1nnc(SCCCN2CC[C@]3(C[C@@H]3c3ccc(C(F)(F)F)cc3)C2)n1C [Example 224, (1R,3S/1S,3R)-5-(3-{[4-methyl-5-(3-methylpyrazin-2-yl)-4H-1,2,4-triazol-3-yl]sulfanyl}propyl)-1-[4-(trifluoromethyl)phenyl]-5-azaspiro[2.4]heptane]
